# US20110250133A1, “GASTRIN […] PEPTIDE COMPOUNDS” (priority 2003, published 2011)
# “Also recorded” adds a separate entry of the source.
# Tests used:
# NMB-R = target: T1, NMB-R (Rattus norvegicus, UniProt P24053); assay: Competition with 125I-NMB for NMB-R in C6 cells (linker specificity); type: binding, rodent; conditions: for receptor subtype preference (GRP-R vs NMB-R): from IC50 with 125I-NMB (C6) and 125I-BBN (PC3), cut off 10x the IC50 of [Tyr4]-BBN;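 for all read-outs here: test cells: rodent glioblastoma C6 line carrying NMB-R, human prostate cancer PC3 line carrying GRP-R, affinity fitted by one-site competition nonlinear regression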
# T1 construct: C6, an NMB-R expressing rodent glioblastoma cell line; host or cells: C6 glioblastoma cells, intact adherent cells
# T1 sequence (P24053 1-390): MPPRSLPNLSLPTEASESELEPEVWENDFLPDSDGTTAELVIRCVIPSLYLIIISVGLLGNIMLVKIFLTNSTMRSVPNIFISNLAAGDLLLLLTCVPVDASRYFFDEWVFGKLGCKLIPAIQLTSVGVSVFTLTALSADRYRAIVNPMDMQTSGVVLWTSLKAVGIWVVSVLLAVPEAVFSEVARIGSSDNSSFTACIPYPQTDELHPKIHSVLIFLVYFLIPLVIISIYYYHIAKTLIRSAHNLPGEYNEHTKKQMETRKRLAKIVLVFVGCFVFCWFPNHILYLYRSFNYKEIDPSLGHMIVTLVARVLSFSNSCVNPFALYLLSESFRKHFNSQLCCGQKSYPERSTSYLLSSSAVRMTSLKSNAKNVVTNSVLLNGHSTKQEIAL
# Procedure: Two cell lines, C6, an NMB-R expressing rodent glioblastoma cell line and PC3, a GRP-R expressing human prostate cancer cell line, were used in this assay. The affinity of various unlabeled compounds for each receptor subtype (NMB-R and GRP-R) was determined indirectly by measuring its ability to compete with the binding of ^125I-NMB or ^125I-BBN to its corresponding receptors in C6 and PC3 cells.
# Cells for the assays were plated at a concentration of 9.6×10^4/well in 48 well poly-lysine coated plates (Beckton Dickinson Biocoat). PC3 were obtained from ATCC(CRL-1435) and cultured in RPMI 1640 (ATCC) supplemented with 2 mM L-glutamine, 1.5 g/L Sodium bicarbonate, 10 mM HEPES and 10% FBS. […] PC3 cells for the assays were plated at a concentration of 2.0×10^4 cells/well in 96-well white/clear bottom plates (Falcon Optilux-I). Plates were used for the assays on day 2 of the post-plating.
# RPMI 1640 (ATCC) containing 25 mM HEPES, 0.2% BSA fraction V, 1.0 mM AEBSF (CAS # 3087-99-7) and 0.1% Bacitracin (CAS # 1405-87-4), pH 7.4. Custom made ^125I-[Tyr^0]NMB, >2.0 Ci/μmole (Amersham Life Science) [^125I-NMB] and commercially available ^125I-[Tyr^4]BBN, >2.0 Ci/μmole (Perkin Elmer Life Science) [^125I-BBN] were used as radioligands.
# Using a 48-well plate assay system (for C6 study) competition experiments were performed using ^125I-NMB. […] Selection of compounds for the assay was based on linker subtype.
# The binding parameters obtained from the studies were analyzed using a one-site competition non-linear regression analysis with GraphPad Prism. The relative affinity of various compounds for NMB-R in C6 cells were compared with those obtained using commercially available [Tyr^4]-BBN and [Tyr^0]-NMB. To distinguish the GRP-R preferring compounds from NMB-R plus GRP-R preferring compounds, IC50 values obtained for each compound were compared with those obtained from [Tyr^4-BBN with ^125I-NMB on C6 cells.
# GRP-R = target: T2, GRP-R (Homo sapiens, UniProt P30550); assay: Competition studies of modified BBN analogs with 125I-BBN for GRP-R in PC3 cells (Example LXI); type: binding
# T2 construct: host or cells: PC3 (PC-3) human prostate cancer cells, intact adherent cells
# Procedure: PC3 cell lines were obtained from ATCC(CRL-1435) and cultured in RPMI 1640 (ATCC) supplemented with 2 mM L-glutamine, 1.5 g/L Sodium bicarbonate, 10 mM HEPES and 10% FBS. […] PC3 cells for the assays were plated at a concentration of 2.0×10^4 cells/well in a 96-well white/clear bottom plates (Falcon Optilux-I). Plates were used for the assays on day 2 of the post-plating.
# ^125I-BBN (Cat # NEX258) was obtained from PerkinElmer Life Sciences.
# All compounds tested were dissolved in binding buffer and appropriate dilutions were also done in binding buffer. PC3 cells for assay were seeded at a concentration of 2.0×10^4/well either in 96-well black/clear collagen I cellware plates (Beckton Dickinson Biocoat). Plates were used for binding studies on day 2 post-plating. The plates were checked for confluency (>90% confluent) prior to assay. […] The studies were conducted with an assay volume of 75 μL per well. Triplicate wells were used for each data point. After the addition of the appropriate solutions, plates were incubated for 1 hour at 4° C. Incubation was ended by the addition of 200 μL of ice-cold incubation buffer. Plates were washed 5 times and blotted dry. Radioactivity was detected using either a LKB CompuGamma counter or a microplate scintillation counter.
# [1] = tested on: BT-474 human breast cancer cells; assay: Effect of drug treatment on GRP receptor binding (177Lu-AMBA) in BT-474 cells; type: cell-based; conditions: for change in GRP receptor specific signal per cell (177Lu-AMBA binding): drug 0.1-1.0 μM (gefitinib 0.1-10 μM); for change in 177Lu-AMBA uptake (GRP-R) on a viable cell basis, BT-474: ↑ increase, ↓ decrease vs untreated; for decrease in 177Lu-AMBA binding (GRP receptor specific signal per cell): drug 0.1-1.0 μM (4-OH Tamoxifen 0.001-0.1 μM)
# Procedure: BT-474 breast cancer cells (human primary invasive ductal carcinoma; ER+, PR+, amplified HER2/neu+) were obtained from the American Type Culture Collection. The growth medium for BT-474 cells is Hybri-care Medium (Cat No: 46X, ATCC) supplemented with 10% heat inactivated FBS (Hyclone, SH30070.03), 0.2% NaHCO3, and antibiotic/antimycotic “PSF-1×” (GibcoBRL, 15240-062) for a final concentration of penicillin-streptomycin (1×, 100 units/mL), and fungizone (0.25 μg/mL). […] Cells for binding experiments were plated on Day 0 at 5.6×10^4 cells/cm^2 in 96-well white/clear bottom microtiter plates (Falcon Optilux-I), or 96 well black/clear collagen I cellware plates (Beckton Dickinson Biocoat).
# (§1) RPMI 1640 supplemented with 20 mM HEPES, 0.1% BSA (w/v), 0.5 mM PMSF (AEBSF), bacitracin (50 mg/500 ml), pH 7.4.
# (§2) Incubations were stopped by the addition of 200 μL of ice-cold binding buffer. Plates were washed three more times with binding buffer, 140 μL of scintillation fluid was added to each well, the plates were sealed and analyzed on a Microβ plate reader (Microbeta Trilux, Perkin-Elmer).
# Treatment: BT-474 cells were plated on Day 0 and treated on Days 1 and 2 (DT1, DT2).
# [2] = tested on: T47D human breast cancer cells; assay: Effect of drug treatment on GRP receptor binding (177Lu-AMBA) in T47D cells; type: cell-based; conditions: for decrease in 177Lu-AMBA binding (GRP receptor specific signal per cell) / increase in 177Lu-AMBA binding (GRP receptor specific signal per cell): relative to untreated control; for decrease in 177Lu-AMBA binding (GRP receptor specific signal per cell): drug 0.1-1.0 μM (4-OH Tamoxifen 0.001-0.1 μM); for increase in 177Lu-AMBA binding (GRP receptor specific signal per cell): drug 0.1-1.0 μM (gefitinib 0.1-10 μM)
# Text: T-47D breast cancer cells (human metastatic mammary gland ductal adenocarcinoma isolated from pleural effusion, ER+, PR+) were obtained from the American Type Culture Collection.
# [3] = tested on: PC-3 prostate cancer cells; assay: Effect of drug treatment on GRP receptor binding (177Lu-AMBA) in PC-3 cells; type: cell-based, human; conditions: for decrease in 177Lu-AMBA binding (GRP receptor specific signal per cell) / increase in 177Lu-AMBA binding (GRP receptor specific signal per cell): relative to untreated control; for decrease in 177Lu-AMBA binding (GRP receptor specific signal per cell): drug 0.1-1.0 μM (gefitinib 0.1-10 μM)
# Procedure: as §1, §2
# PC-3 (human prostate adenocarcinoma, bone metastasis, AR-, ER) were obtained from the American Type Culture Collection. The growth medium for PC-3 cells is RPMI 1640 (10-041-CM, Mediatech, Inc), supplemented with 10% heat inactivated FBS (Hyclone, SH30070.03) and PSF-1× (as in Example LXVI). The binding buffer, lapatinib solutions, treatment method and cell binding assay is the same as in Example LXVI.
# [4] = tested on: PC-3 prostate cancer cells; assay: Effect of dasatinib on GRP receptor binding, proliferation and glucose uptake in PC-3 cells (single plate assay); type: cell-based, human; conditions: for % Change in 2-NBDG uptake / % change in 177Lu-AMBA uptake / % Change in Proliferation / 177Lu-AMBA uptake (Bmax fmoles/million cells): PC3 cells; for % Change in Proliferation: N = 4; for 177Lu-AMBA uptake (Bmax fmoles/million cells): control 266 (±23)
# Procedure: The cells were plated on Day 0 (7.5 k/well 96-well PE Scintiplate). […] To determine the cell numbers and the proliferation, 100 uL of 10% CCK—F solution in DPBS (Molecular technologies) was added to the same plate, incubated for 30 min at 37° C. and the relative fluorescence (RFU) measured at 535 nm. Base on the cell numbers and the ^177Lu-binding, the Bmax (fmoles bound/million cells) was calculated, and the results compared with the control.
# For the glucose uptake study, a fluorescently labeled 2-deoxyglucose derivative (2-NBDG) was used. After the dasatinib treatment as described above, the cells were incubated with 2-NBDG (200 uM) in binding buffer for 2 h at 37° C. and measured RFU at 530 nm. The cell numbers were determined using CCK—F as described above. Based on the cell numbers Bmax for glucose uptake was determined and compared with the control.
# [5] = BT-474, relative to untreated control
# [6] = drug 0.1-1.0 μM, ↑ increase, ↓ decrease vs untreated
# T2 sequence (P30550 whole entry): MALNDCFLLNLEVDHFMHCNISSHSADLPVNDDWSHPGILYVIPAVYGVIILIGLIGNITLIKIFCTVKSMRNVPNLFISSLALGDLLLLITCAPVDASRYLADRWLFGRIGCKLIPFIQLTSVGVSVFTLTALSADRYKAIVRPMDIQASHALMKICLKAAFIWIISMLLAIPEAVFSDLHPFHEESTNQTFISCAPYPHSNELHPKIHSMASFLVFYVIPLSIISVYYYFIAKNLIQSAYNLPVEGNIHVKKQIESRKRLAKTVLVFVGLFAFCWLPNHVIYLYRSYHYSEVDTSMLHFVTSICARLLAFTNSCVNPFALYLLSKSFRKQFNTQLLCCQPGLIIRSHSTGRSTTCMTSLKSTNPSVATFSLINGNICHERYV
substance,measurement,setting,value
"N-[(3β,5β,12α)-3-[[[4,7,10-Tris(carboxymethyl)-1,4,7,10-tetraazacyclododec-1-yl]acetyl]amino]-4-aminobenzoyl-glycyl-L-glutaminyl-L-tryptophyl-L-alanyl-L-valyl-glycyl-L-histidyl-L-leucyl-L-methioninamide [Compound L204]",receptor subtype preference (GRP-R vs NMB-R),NMB-R,selective affinity to NMB-R; also recorded: favor the NMB subtype
same,receptor preference in words (GRP-R / GRP-R and NMB-R),NMB-R; wrapped cell: 'No selective preference' or 'preference for NMB-R',preference for NMB-R
"N-[(3β,5β,12α)-3-[[[4,7,10-Tris(carboxymethyl)-1,4,7,10-tetraazacyclododec-1-yl]acetyl]amino]-glycyl-4-aminobenzoyl-L-glutaminyl-L-tryptophyl-L-alanyl-L-valyl-glycyl-L-histidyl-L-phenylalanyl-L-methioninamide [Compound L228]",competition at the GRP-R,GRP-R,maintains GRP-R activity
"N-[(3β,5β,12α)-3-[[[4,7,10-Tris(carboxymethyl)-1,4,7,10-tetraazacyclododec-1-yl]acetyl]amino]-glycyl-4-aminobenzoyl-L-leucyl-L-tryptophyl-L-alanyl-L-threonyll-glycyl-L-histidyl-L-phenylalanyl-L-methioninamide [Compound L227]",receptor subtype preference (GRP-R vs NMB-R),NMB-R,affinity to GRP-R in addition to its inherent NMB-R affinity
anastrozole,change in GRP receptor specific signal per cell (177Lu-AMBA binding),[1]; BT-474,no change
same,"change in 177Lu-AMBA uptake (GRP-R) on a viable cell basis, BT-474",[1]; drug 0.1-1.0 μM,NC (NC: Little(<10%) or no change in Lu-AMBA uptake)
same,decrease in 177Lu-AMBA binding (GRP receptor specific signal per cell),[2]; T-47D,up to 10%
same,decrease in 177Lu-AMBA binding (GRP receptor specific signal per cell),[3]; PC-3,up to 10%
bortezomib,decrease in 177Lu-AMBA binding (GRP receptor specific signal per cell),[1]; [5],up to 50%
same,decrease in 177Lu-AMBA binding (GRP receptor specific signal per cell),[2]; T-47D,up to 50%
same,decrease in 177Lu-AMBA binding (GRP receptor specific signal per cell),[3]; PC-3,up to 60%
dasatinib,decrease in 177Lu-AMBA binding (GRP receptor specific signal per cell),[1]; [5],10-15%
same,increase in 177Lu-AMBA binding (GRP receptor specific signal per cell),[2]; T-47D,up to 500%
same,increase in 177Lu-AMBA binding (GRP receptor specific signal per cell),"[3]; PC-3, drug 0.1-1.0 μM",up to 250%
same,% Change in 2-NBDG uptake,[4]; Dasatinib 1 nM,−4.3 (±4.6) %
same,% change in 177Lu-AMBA uptake,[4]; Dasatinib 1 nM,12.3 (±5.8) %
same,% Change in Proliferation,[4]; Dasatinib 1 nM,−4.3 (±1.0) %
same,177Lu-AMBA uptake (Bmax fmoles/million cells),[4]; Dasatinib 1 nM,300 (±40) fmoles/million cells
same,% Change in 2-NBDG uptake,[4]; Dasatinib 10 nM,−62.9 (±7.1) %
same,% change in 177Lu-AMBA uptake,[4]; Dasatinib 10 nM,45.4 (±8.1) %
same,% Change in Proliferation,[4]; Dasatinib 10 nM,−11.2 (±5.9) %
same,177Lu-AMBA uptake (Bmax fmoles/million cells),[4]; Dasatinib 10 nM,387 (±46) fmoles/million cells
same,% Change in 2-NBDG uptake,[4]; Dasatinib 100 nM,−67.8 (±15.8) %
same,% change in 177Lu-AMBA uptake,[4]; Dasatinib 100 nM,76.7 (±5.0) %
same,% Change in Proliferation,[4]; Dasatinib 100 nM,−33.3 (±11.4) %
same,177Lu-AMBA uptake (Bmax fmoles/million cells),[4]; Dasatinib 100 nM,470 (±51) fmoles/million cells
same,"177Lu-AMBA uptake, average Bmax","[4]; PC-3, 100 nM",≤ 470 fmoles/million cells
same,decrease of glucose uptake (2-NBDG),"[4]; PC-3, 100 nM",≤ 67.8%
same,inhibition of growth (cell proliferation),"[4]; PC-3, 100 nM",≤ 33%
erlotinib,change in GRP receptor specific signal per cell (177Lu-AMBA binding),[1]; BT-474,no change
same,"change in 177Lu-AMBA uptake (GRP-R) on a viable cell basis, BT-474",[1]; drug 0.1-1.0 μM,NC (NC: Little(<10%) or no change in Lu-AMBA uptake)
same,increase in 177Lu-AMBA binding (GRP receptor specific signal per cell),[2]; T-47D,5-20%
same,decrease in 177Lu-AMBA binding (GRP receptor specific signal per cell),[3]; PC-3,5-20%
gefitinib,change in GRP receptor specific signal per cell (177Lu-AMBA binding),[1]; BT-474,no change
same,"change in 177Lu-AMBA uptake (GRP-R) on a viable cell basis, BT-474",[1]; drug 0.1-10 μM,NC (NC: Little(<10%) or no change in Lu-AMBA uptake)
same,increase in 177Lu-AMBA binding (GRP receptor specific signal per cell),[2]; T-47D,up to 20%
same,decrease in 177Lu-AMBA binding (GRP receptor specific signal per cell),[3]; PC-3,20-40%
imatinib,change in GRP receptor specific signal per cell (177Lu-AMBA binding),[1]; BT-474,no change
same,"change in 177Lu-AMBA uptake (GRP-R) on a viable cell basis, BT-474",[1]; drug 0.1-1.0 μM,NC (NC: Little(<10%) or no change in Lu-AMBA uptake)
same,increase in 177Lu-AMBA binding (GRP receptor specific signal per cell),[2]; T-47D,up to 15%
same,decrease in 177Lu-AMBA binding (GRP receptor specific signal per cell),[3]; PC-3,15-25%
lapatinib,decrease in cell proliferation,"[1]; BT-474, highest concentration",≤ 65%
same,increase in 177Lu-AMBA binding (GRP receptor specific signal per cell),"[1]; BT-474, relative to untreated control, drug 0.1-1.0 μM (β2-estradiol 1 nM)",up to 140%
same,decrease in cell proliferation,"[2]; T-47D, highest concentration",≤ 35%
same,increase in 177Lu-AMBA binding (GRP receptor specific signal per cell),[2]; T-47D,up to 50%
same,change in proliferation,"[3]; PC-3, 0.1-1.0 μM",no change
same,change in GRP receptor specific signal per cell (177Lu-AMBA binding),"[3]; PC-3, drug 0.1-1.0 μM (4-OH Tamoxifen 0.001-0.1 μM)",no change
same,"change in 177Lu-AMBA uptake (GRP-R) on a viable cell basis, PC-3",[3]; [6],NC (NC: Little(<10%) or no change in Lu-AMBA uptake)
sorafenib,decrease in 177Lu-AMBA binding (GRP receptor specific signal per cell),[1]; [5],10-25%
same,change in GRP receptor specific signal per cell (177Lu-AMBA binding),[2]; T-47D,no change
same,"change in 177Lu-AMBA uptake (GRP-R) on a viable cell basis, T47D",[2]; [6],NC (NC: Little(<10%) or no change in Lu-AMBA uptake)
same,decrease in 177Lu-AMBA binding (GRP receptor specific signal per cell),[3]; PC-3,10-20%
sunitinib,decrease in 177Lu-AMBA binding (GRP receptor specific signal per cell),[1]; [5],up to 8%
same,increase in 177Lu-AMBA binding (GRP receptor specific signal per cell),[2]; T-47D,up to 13%
same,increase in 177Lu-AMBA binding (GRP receptor specific signal per cell),"[3]; PC-3, drug 0.1-1.0 μM",up to 10%
